By Ki is commonly meant a dissociation constant, usually derived from enzyme kinetics or from competition with a known ligand. The low end stands for higher affinity, the high end for lower affinity. In general, melting point refers to the temperature, or range, at which the solid turns liquid. What is called solubility is the concentration that dissolves in the medium under given conditions. Low values mean little dissolved substance, high ones much dissolved substance.

Converted amounts (≈) assume the structure as drawn.

The source of these data is paper PMC6445327, “Inhibition of the α-carbonic anhydrase from Vibrio cholerae with amides and sulfonamides incorporating imidazole moieties” (Journal of Enzyme Inhibition and Medicinal Chemistry, 2017).

Data set [1] concerns V. cholerae O1 reference strain ATCC14103. Nature of the data set: In vitro antibacterial assay (broth dilution). As to conditions: for concentration inhibiting bacterial growth: 37 °C, 18–20 h, tryptic soy broth. It is filed as cell-based, Vibrio cholerae. Background: Dilution methods test growth across graded concentrations, often in twofold steps.
The test system of data set [2] is V. cholerae O1 strain ISS-Vc014 (multiresistant clinical isolate). Nature of the data set: In vitro antibacterial assay (broth dilution). It is filed as cell-based, Vibrio cholerae. To be noted: for concentration inhibiting bacterial growth: 37 °C, 18–20 h, tryptic soy broth.
Another data set deals with T1, hCA I (Homo sapiens, UniProt P00915).
T1 construct: made in house
T1 sequence (P00915 whole entry): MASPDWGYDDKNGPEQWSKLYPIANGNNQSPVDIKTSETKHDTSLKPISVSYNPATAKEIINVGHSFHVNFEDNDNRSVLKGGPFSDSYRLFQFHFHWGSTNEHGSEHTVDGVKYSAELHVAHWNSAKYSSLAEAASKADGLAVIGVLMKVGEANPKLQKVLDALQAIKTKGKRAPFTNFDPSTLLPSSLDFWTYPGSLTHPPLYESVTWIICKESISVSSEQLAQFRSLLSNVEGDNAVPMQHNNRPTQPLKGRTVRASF
The data set can be described thus: Stopped-flow CO2 hydration assay, CA inhibition. The class given is biochemical. The protocol:
(§1) The uncatalyzed rates were determined in the same manner and subtracted from the total observed rates. Stock solutions of inhibitor (0.01 mM) were prepared in distilled–deionised water with 5% DMSO and dilutions up to 0.1 nM were done thereafter with the assay buffer. The Inhibition constant (KI) was obtained by considering the classical Michaelis–Menten equation, which has been fitted by non-linear least squares by using PRISM 3. All CA isozymes used in the experiments were purified recombinant proteins obtained as reported earlier by our group.

In a further data set the target is T2, hCA II (Homo sapiens, UniProt P00918).
T2 construct: made in house
The data set can be described thus: Stopped-flow CO2 hydration assay, CA inhibition. The class given is biochemical. The protocol:
as §1

Data set [3] concerns the target VchCA (Vibrio cholerae α-carbonic anhydrase) (Vibrio cholerae, UniProt Q9KMP6). The data set can be described thus: biochemical. The protocol:
as §1

Data set [4] relates to two V. cholerae O1 strains (ATCC14103 and ISS-Vc014). Nature of the data set: In vitro antibacterial assay (broth dilution), strain not distinguished. It is filed as cell-based, Vibrio cholerae. To be noted: up to 3 mg ml^−1 (the limit of solubility).
Data set [5] in a line: Limit of solubility in the antibacterial test. As to conditions: 37 °C.

VchCA (Vibrio cholerae α-carbonic anhydrase), sequence (Q9KMP6 entry or part of it): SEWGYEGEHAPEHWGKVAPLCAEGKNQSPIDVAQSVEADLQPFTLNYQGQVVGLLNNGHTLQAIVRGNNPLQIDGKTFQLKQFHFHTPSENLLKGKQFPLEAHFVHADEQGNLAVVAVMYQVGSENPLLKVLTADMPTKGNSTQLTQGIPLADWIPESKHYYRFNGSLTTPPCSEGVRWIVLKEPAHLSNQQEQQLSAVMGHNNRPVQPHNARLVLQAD

In the case of `CC1(C)S[C@@H]2[C@H](NC(=O)[C@H](N)c3ccccc3)C(=O)N2[C@H]1C(=O)O` [Ampicillin, reference compound], the “concentration inhibiting bacterial growth” value was “higher than 0.01 mg ml^−1” in data set [1] and 1.0 mg/mL in data set [2].
`CS(=O)(=O)NCCCn1ccnc1` [Compound 1, N-(3-(1H-imidazol-1-yl)propyl)methanesulfonamide] came in with a melting point of 89 to 91 °C. Further, the Ki on hCA I worked out at 387 nM. For the same molecule, the Ki at hCA II is above 10000 nM. This molecule showed a Ki in data set [3] of 10.9 nM.
Turning to `O=S(=O)(NCCCn1ccnc1)c1ccc(F)cc1` [Compound 2, N-(3-(1H-imidazol-1-yl)propyl)-4-fluorobenzenesulfonamide], the melting point is 121 to 123 °C. In addition, on hCA I, affinity was put at a Ki of 1700 nM. For the same molecule, the Ki on hCA II was above 10000 nM. Moreover, in data set [3], the affinity corresponds to a Ki of 8.5 nM. In data set [1], the “activity compared to ampicillin” value was “less active” and the “concentration inhibiting bacterial growth” value came to 2 mg/mL. In addition, in data set [2], the “activity compared to ampicillin” value was “comparable activity” and the “concentration inhibiting bacterial growth” value was 2 mg/mL.
Turning to `O=S(=O)(NCCCn1ccnc1)c1ccc(C(F)(F)F)cc1` [Compound 3, N-(3-(1H-imidazol-1-yl)propyl)-4-(trifluoromethyl)benzenesulfonamide], the melting point fell in the range of 127 to 128 °C. Besides, on hCA I, the Ki was above 50000 nM. This molecule yielded a Ki on hCA II above 50000 nM. This molecule had a Ki in data set [3] of 6.4 nM.
Take `O=[N+]([O-])c1ccc(S(=O)(=O)NCCCn2ccnc2)cc1` [Compound 4, N-(3-(1H-imidazol-1-yl)propyl)-4-nitrobenzenesulfonamide]: the melting point was 140 to 141 °C. The molecule also had a Ki at hCA I above 50000 nM. At hCA II, the Ki is above 50000 nM. Besides, the Ki in data set [3] was determined as 6.2 nM.
Take `CC(=O)NCCCn1ccnc1` [Compound 5, N-(3-(1H-imidazol-1-yl)propyl)acetamide]: the Ki at hCA I was above 50000 nM; on hCA II it was above 50000 nM; in data set [3], 39.2 nM.
Molecule `O=C(NCCCn1ccnc1)c1ccc(F)cc1` [Compound 6, N-(3-(1H-imidazol-1-yl)propyl)-4-fluorobenzamide] came in with a melting point of 70 to 72 °C. For the same molecule, the Ki at hCA I is above 50000 nM. Further, the Ki at hCA II was above 50000 nM. Also, in data set [3], the inhibitory constant (Ki) was 9.1 nM.
As to `O=C(NCCCn1ccnc1)c1ccc(C(F)(F)F)cc1` [Compound 7, N-(3-(1H-imidazol-1-yl)propyl)-4-(trifluoromethyl)benzamide], the melting point was 106 to 107 °C. For the same molecule, the Ki at hCA I was determined as 2550 nM. The molecule further showed a Ki on hCA II above 10000 nM. Also, affinity in data set [3] was put at a Ki of 10.4 nM. For the same molecule, the “inhibition of the bacterial growth at higher concentrations” value in data set [4] was “not active”. This molecule also showed a solubility in data set [5] of 3000 µg/mL (≈ 10.1 mM).
For `O=C(NCCCn1ccnc1)c1ccc([N+](=O)[O-])cc1` [Compound 8, N-(3-(1H-imidazol-1-yl)propyl)-4-nitrobenzamide], the melting point was 152 to 154 °C. On hCA I, this molecule gave a Ki of 1730 nM. This molecule also displayed a Ki at hCA II above 10000 nM. In addition, in data set [3], the Ki came to 11 nM. Besides, in data set [4], the “inhibition of the bacterial growth at higher concentrations” value is reported as “partially active”. In addition, the solubility in data set [5] was 3000 µg/mL (≈ 10.9 mM).
With `O=C(NCCCn1ccnc1)c1ccc(-c2ccccc2)cc1` [Compound 9, N-(3-(1H-imidazol-1-yl)propyl)-[1,1′-biphenyl]-4-carboxamide], the Ki was above 50000 nM at hCA I, above 50000 nM on hCA II and 5.4 nM in data set [3].
The molecule `O=C(NCCCc1ccccc1)c1ccc([N+](=O)[O-])cc1` [Compound 10, 4-Nitro-N-(3-phenylpropyl)benzamide] registered a melting point of 95 to 97 °C. Moreover, the Ki on hCA I was above 50000 nM. Further, on hCA II, the Ki is above 50000 nM. Also, in data set [3], the Ki amounted to 7.8 nM.
